Measurements published in ChEMBL document CHEMBL1687871, “Phragmalin- and mexicanolide-type limonoids from the leaves of Trichilia connaroides” (J Nat Prod, 2011).

System: HL-60
Test: Cytotoxicity against human HL60 cells
Type: functional, cell-based

Row | Compound | IC50
1 | C/C=C(\C)C(=O)O[C@H]1[C@@]2(C)C[C@@]3(O)[C@](C)([C@H]4CC[C@]5(C)C(=C4[C@H](OC(C)=O)[C@@]13O)[C@@H](OC(C)=O)C(=O)O[C@H]5c1ccoc1)[C@H]2CC(=O)OC [TRICHAGMALIN D] | 17.1 µM
2 | C/C=C(\C)C(=O)O[C@H]1[C@@]2(C)C[C@@]3(OC(C)=O)[C@](C)([C@H]4CC[C@]5(C)C(=C4[C@H](OC(C)=O)[C@@]13OC(C)=O)[C@@H](OC(C)=O)C(=O)O[C@H]5c1ccoc1)[C@H]2CC(=O)OC [15-ACETYLTRICHAGMALIN E] | 21 µM
